Several values for one entry are separate records, joined by “and”; a condition that tells them apart may be missing. Equal entries are not always repeated. Entries after “also recorded” stand apart in the source; their conditions may differ. Where two headings read alike, the source gives them in different places.

Data set [1] is described as follows: Quartz crystal microbalance weight loss of amine-treated iron surface in unstirred 0.5 M sodium sulfate solution. The conditions noted are these: for percent wt. loss: amine-treated iron surface, 6.5 hours in unstirred 0.5 M Na2SO4 (pH=5.8); for time when wt. loss commenced: unstirred 0.5 M Na2SO4 (pH=5.8), 6.5 hours. Here is the method: Weightloss measurements were performed by immersing the amine-coated iron surface in 0.5 M sodium sulfate solution (pH=5.8), and comparing the results observed with those obtained in case of an unprotected iron surface. From the results achieved, the following four major conclusions follow:
Table I below correlates the pKa of an amine with the percentage weight loss observed (using the quartz crystal microbalance technique) when the amine-treated iron surface was immersed for 6.5 hours in 0.5 M Na2SO4 solution (pH=5.8). See pKa prediction of organic acids and bases, D. D. Perrin, B. Dempsey, E. P. Serjeant (1981), Chapman and Hall. Physical methods in Heterocyclic Chemistry Vol. 1, A. A. Katritzky (1963), Academic Press.

The nature of data set [2]: QCM weight loss of amine-treated iron deposit in "open" pH 2.6 sulfate solution.
Data set [3] is described as follows: Quartz crystal microbalance weight loss of amine-treated iron surface in unstirred 0.5 M sodium sulfate solution. The conditions noted are these: "open" pH 5.9 sulfate solution.
The conditions of data set [4]: cited from earlier work.
Data set [5] in a line: QCM weight loss of DBU-treated iron deposit in Ar-purged pH 2.6 sulfate solution. The conditions noted are these: no dissolved oxygen, pH 2.6 sodium sulfate solution. The procedure: This conclusion was arrived at by examining the effect of DBU on the corrosion of iron in Ar-purged (no dissolved oxygen) pH 2.6 (acidic) sodium sulfate solution using the QCM technique, and comparing the results obtained with those recorded in “open” (oxygen containing) pH 2.6 and 5.9 solutions.
The apparatus for the experiments performed under purged conditions (as illustrated in FIG. 6) consists of a 500 ml Pyrex reaction vessel with a 4-necked cover. The reaction vessel and the cover are retained intact together during the experiment with the aid of a horse-shoe clamp. The QCM is inserted through the central neck, after plating the iron deposit onto the crystal. A pH electrode is inserted through one of the necks, and an inlet for Ar gas through the other. The fourth neck is stoppered when not used. The pH 2.6 sulfate solution is purged with Ar gas for 1 hour before exposure of the iron deposit (protected/unprotected) to the environment. See D. D. Perrin, B. Dempsey, E. P. Serjeant, pKa prediction of organic acids and bases, Chapman and Hall, 1981. A. A. Katritzky, Physical methods in Heterocyclic Chemistry Vol. 1, Academic Press, 1963. […]
The DBU-treated iron deposit was immersed in the Ar-purged pH 2.6 solution, and the weightloss and corresponding pH measurements recorded are plotted in FIGS. 7A and 7B. […]

The nature of data set [6]: EQCM amine adsorption on iron in passivating borate buffer (pH 8.4). The conditions noted are these: 15 mM amine. An excerpt:
(§1) All the test solutions were buffered so that the effect of pH variation can be eliminated as much as possible. Thus, amine inhibition effectiveness is directly related to the strength of adsorption of the amine and its molecular structure, independent of pH effects. Here, borate buffer (pH 8.4) was used as passivating environment, whereas phosphate buffer (pH 5.7) was used as corrosive environment.
(§2) Plating of iron deposit (1 u thick) onto the polished gold crystal of the QCM electrode was accomplished from a 200 ml aqueous solution with the following composition:
(§3) For adsorption studies, the deposit was immersed in a passivating buffered solution (borate, pH 8.4, prepared as cited above) for 40 rain. for equilibration, after which 15 mM amine was added to the solution. The variation in frequency upon addition of the amine is quantitatively proportional to the amine adsorbed on the surface of the metal (Sauerbrey equation).
(§4) Deaerated test solutions (no dissolved O2) are prepared by purging the test solutions with argon for 2 hours before the tests and also during the tests.

Data set [7] can be described thus: EQCM amine inhibition of iron corrosion in corrosive phosphate buffer (pH 5.7). The conditions noted are these: 15 mM amine.
Text: as §1, §2
(§5) For the corrosion inhibition studies, the deposit was immersed in a corrosive buffer solution (phosphate, pH 5.7) for 40 min. for equilibration, and then 15 mM amine was added to the solution.
as §4

Data set [8] can be described thus: Weight loss of AISI 1018 steel coupons exposed to amine containing steam at 250° F. The conditions noted are these: 250° F. steam, compared to plain steam.
Data set [9] can be described thus: FTIR phase identification of iron oxides on steel samples exposed to amine containing steam. The settings on record: for hematite in samples exposed for four hours (FTIR): four hours exposure; for exposure time at which hematite formation was observed (FTIR): steam with 3 ppm DBU or 5 ppm morpholine.
Text: The main purpose of this analysis was to observe the relative delay in magnetite transformation to hematite.
Amorphous crystals will produce a variation in peak width, and a slight shift on IR values (Cornell R., and Schwertmann U., 1996). […] Oxyhydroxides absorption hands are as follows: α-FeOOH is known to have a deep well defined pair of sharp peaks at 890 and 795 cm^−1, γ-FeOOH presents an enunciated and deep peak at 1018 cm^−1. β-FeOOH was not expected to be present in the experiment conditions.
FIGS. 42 and 43 show the FTIR spectra of iron oxides formed on steel samples exposed to steam containing 3 ppm of DBU.
FIGS. 46 and 47 show the FTIR spectra of iron oxides formed on steel samples exposed to steam containing 3 ppm of DMA.
Data set [10] is described as follows: EQCM aniline adsorption on nickel in borate buffer (pH 8.4). The conditions noted are these: borate buffer pH 8.4, aerated. Here is the method:
(§6) Plating of black nickel deposit (1 u thick) onto the polished gold crystal of the QCM electrode was accomplished from a 200 ml aqueous solution with the following composition:
as §3

Data set [11] is described as follows: EQCM aniline inhibition of nickel corrosion in phosphate buffer (pH 5.7). The settings on record: phosphate buffer pH 5.7, aerated. Here is the method:
as §6, §5

[12] abbreviates: borate buffer pH 8.4, deaerated.
The mark [13] stands for this setting: phosphate buffer pH 5.7, aerated.
Where [14] appears, read: phosphate buffer pH 5.7, deaerated.

In the case of `COCCCN` [3-methoxypropylamine], in [1], the percent wt. loss was determined as 0% and the “time when wt. loss commenced” value is recorded as “no wt. loss”. For the same compound, the “effectiveness as corrosion inhibitor in acidic solution” value (shortened to “effectiveness as corrosion inhibitor”) in data set [2] ("open" pH 2.6 solution) is “not effective inhibitors”. In addition, the “% wt. loss in pH 2.6 solution” value in [2] ("open" pH 2.6 solution, over 60 minutes, probe failed after 60 minutes) is 11.19% and 11.19 (probe failed %. For the same compound, the “% wt. loss in pH 5.9 solution” value in [3] is given as 0%.

In the case of `NCCCCCO` [5-amino-1-pentanol], in [1], the percent wt. loss stood at 4.106% and the “time when wt. loss commenced” value came to 90 min. Besides, the “% wt. loss in pH 5.9 solution” value in data set [3] is listed as 4.106%. Further, in data set [4] (Table II, 23° C.), the pKa is listed as 10.46 (23° C.).

For the compound `C1CCC2=NCCCN2CC1` [DBU, 1,8-diazabicyclo[5.4.0]undec-7-ene], in [1], the percent wt. loss is reported as 0% and the “time when wt. loss commenced” value is “no wt. loss”. Further, the “effectiveness as corrosion inhibitor” value in [2] ("open" pH 2.6 solution) is on record as “good corrosion inhibitors”. Moreover, in data set [2] ("open" pH 2.6 sulfate solution), the “% wt. loss in pH 2.6 solution” value was 7.2%. Further, the “weightloss in Ar-purged pH 2.6 solution” value in [5] is “extensive weightless”. Moreover, the “adsorption on iron surface” value in data set [6] (borate buffer pH 8.4, aerated) was “forms a monolayer initially and then multilayers; also recorded: Adsorption”. Besides, the “adsorption on iron surface” value in data set [6] (setting [12]) is recorded as “still can adsorb on the iron surface; also recorded: adsorption”. For the same compound, in data set [7] (setting [13]), the “inhibition of iron corrosion” value is listed as “stops corrosion; also recorded: inhibition”. Besides, in [7] (setting [14]), the “inhibition of iron corrosion” value is “none of them can stop the iron corrosion; also recorded: no effect”. Also, the “weight loss / corrosion rate of steel coupons in steam” value (“weight loss / corrosion rate” below) in [8] is given as “lowest corrosion rate”. In data set [9], the “hematite in samples exposed for four hours (FTIR)” value (“hematite in samples exposed” below) is “no hematite was detected” and the “exposure time at which hematite formation was observed (FTIR)” value came to 12 h. Besides, in data set [3], the “% wt. loss in pH 5.9 solution” value stood at 0%.

For the compound `CCCCNCCCC` [N,N-dibutylamine], the percent wt. loss in data set [1] is recorded as 9.3%. Also, in data set [1], the “time when wt. loss commenced” value is 161 minutes, expt. Further, the “adsorption on iron surface” value in [6] (borate buffer pH 8.4, aerated, listed as DBA) is given as “adsorbs on iron surface; also recorded: adsorption”; in data set [6] (borate buffer pH 8.4, deaerated, listed as DBA), “still can adsorb on the iron surface; also recorded: adsorption”. Moreover, the “inhibition of iron corrosion” value in data set [7] (phosphate buffer pH 5.7, aerated, listed as DBA) is “oxide growth is noted after its adsorption; also recorded: inhibition”; in [7] (phosphate buffer pH 5.7, deaerated, listed as DBA), “none of them can stop the iron corrosion; also recorded: no effect”. Further, the “% wt. loss in pH 5.9 solution” value in data set [3] was 9.3%. Moreover, the “pKa at 25° C.” value in data set [4] (Table I and text) is recorded as 11.25; in data set [4] (Table II), 11.25.

Regarding `Nc1ccccc1` [aniline], the “adsorption on iron surface” value in data set [6] (borate buffer pH 8.4, aerated) is given as “does not have any adsorption”; in data set [6] (borate buffer pH 8.4, aerated, listed as Aniline), “no”; in [6] (setting [12]), “no”. Besides, in [7] (setting [13]), the “inhibition of iron corrosion” value is on record as “no effect on inhibition”. Moreover, the “adsorption on nickel surface” value in data set [10] is reported as “adsorption”. Also, the “inhibition of nickel corrosion” value in [11] is given as “inhibition”.

Compound `CC(C)NC(C)C` [diisopropylamine] displayed a percent wt. loss in [1] (listed as diisoproplyamine) of 0%. For the same compound, the “time when wt. loss commenced” value in data set [1] is “no wt. loss”. Further, the “effectiveness as corrosion inhibitor” value in data set [2] ("open" pH 2.6 solution) was “not effective inhibitors”. Also, the “% wt. loss in pH 2.6 solution” value in data set [2] ("open" pH 2.6 sulfate solution) is given as 99.23%. Further, in data set [3], the “% wt. loss in pH 5.9 solution” value is on record as 0%.

As to `CNC` [dimethylamine], in [1], the percent wt. loss was determined as 0.793% and the “time when wt. loss commenced” value came out at 30 min. In addition, the “effectiveness as corrosion inhibitor” value in [2] ("open" pH 2.6 solution) is on record as “not effective inhibitors”. For the same compound, the “% wt. loss in pH 2.6 solution” value in data set [2] ("open" pH 2.6 sulfate solution) amounted to 98.4%. Further, the “weight loss / corrosion rate” value in [8] is “oxidation rates less favorable”. The “hematite in samples exposed” value in data set [9] is “no hematite was detected”. In addition, the “% wt. loss in pH 5.9 solution” value in data set [3] was found to be 0.793%.

As to `C1COCCN1` [morpholine], in [1], the percent wt. loss is 8.87% and the “time when wt. loss commenced” value came to 110 min. In data set [6] (borate buffer pH 8.4, aerated), the “adsorption on iron surface” value is given as “only weak adsorption; also recorded: little”. Further, in [6] (setting [12]), the “adsorption on iron surface” value is “still can adsorb on the iron surface; also recorded: little”. Further, the “inhibition of iron corrosion” value in [7] (setting [13]) is “slow and weak”. In data set [7] (setting [14]), the “inhibition of iron corrosion” value was “none of them can stop the iron corrosion”. In addition, in data set [8], the “weight loss / corrosion rate” value was “oxidation rates less favorable”. Also, in data set [9], the “hematite in samples exposed” value was “some hematite presence” and the “exposure time at which hematite formation was observed (FTIR)” value was “started after two hours of exposure”. The “% wt. loss in pH 5.9 solution” value in data set [3] is 8.87%.

As for `C1CCNCC1` [piperidine], in data set [1], the percent wt. loss was 0.57% and the “time when wt. loss commenced” value is 350 min. In addition, in data set [2] ("open" pH 2.6 solution), the “effectiveness as corrosion inhibitor” value is listed as “good corrosion inhibitors”. Further, the “% wt. loss in pH 2.6 solution” value in [2] ("open" pH 2.6 sulfate solution) stood at 10.9%. Also, in data set [3], the “% wt. loss in pH 5.9 solution” value amounted to 0.57%.
